This note sets out measurements from patent publication US20050148570A1, “Novel substituted alkane compounds and uses thereof” (priority 2001, published 2005).

In one data set the test system is S. aureus. The experiment in a line: MIC, broth dilution method. It counts as cell-based. Conditions: for MIC: Staphylococcus aureus, read-out: Antibacterial Activity against S. aureus MIC. How it is done:
(§1) Antibacterial activity can be determined by several standard methods well known by those skilled in the art, including disc diffusions methods, broth dilution minimal inhibitory concentration (MIC) methods, etc., including the detailed method outlined below. Cultures of bacteria are initially brought up from the freezer by streaking a loopful onto agar plates under the appropriate conditions. For instance stocks are streaked onto chocolate agar and then incubated for 18 hours at 35-37° C. in a 5% CO2 incubator. Five to 10 colonies are picked from the chocolate agar plate for subculture to Brain-Heart Infusion (BHI) broth or Mueller Hinton broth or BHI containing 4% serum and incubated under the appropriate conditions. The ability of the test compound to act as an antimicrobial is determined by the ability to inhibit bacterial, algae, or fungal growth in vitro. The optical density of the culture of organisms in the presence of an active compound is compared to the optical density of the same organism untreated. The activity of the compounds is described as either negative or the lowest concentration inhibiting growth.

In the next data set the test system is H. influenzae. The experiment in a line: MIC, broth dilution method. Format: cell-based. To be noted: Haemophilus influenzae, read-out: MIC Anti-Bacterial Activity. The procedure: as §1
Another data set has as its system M. smegimatis. Description: MIC, broth dilution method. To be noted: read-out: MIC Anti-Bacterial Activity. It counts as cell-based. How it is done:
as §1
For orientation: In broth dilution the organism is exposed to a series of concentrations in liquid medium.

For another data set, the system named is M. catarrhalis. The experiment in a line: MIC, broth dilution method. It counts as cell-based. Conditions: Moraxella catarrhalis, read-out: MIC Anti-Bacterial Activity. How it is done:
as §1

Another data set concerns S. epidermidis. Description: MIC, broth dilution method. It counts as cell-based. To be noted: Staphylococcus epidermidis, read-out: MIC Anti-Bacterial Activity. The procedure:
as §1

The subject of the next data set is S. pneumoniae. Description: MIC, broth dilution method. Format: cell-based. To be noted: Streptococcus pneumoniae, read-out: MIC Anti-Bacterial Activity. How it is done: as §1
The subject of the next data set is C. diphtheriae. The experiment in a line: MIC, broth dilution method. Format: cell-based. To be noted: Corynebacterium diphtheriae, read-out: MIC Anti-Bacterial Activity. How it is done: as §1
In another data set the test system is E. faecalis. Description: MIC, broth dilution method. Format: cell-based. To be noted: Enterococcus faecalis, read-out: MIC Anti-Bacterial Activity. The procedure: as §1
The test system of a further data set is S. pyogenes. Description: MIC, broth dilution method. It counts as cell-based. To be noted: Streptococcus pyogenes, read-out: MIC Anti-Bacterial Activity. How it is done: as §1

Converted amounts (≈) assume the structure as drawn.

For the compound `CCCCC1CC1(c1ccc(O)cc1)c1ccc(O)cc1` (stereo not drawn) [Example 18, 1,1-Di(4-hydroxyphenyl)-2-n-butylcyclopropane], the MIC in the data set with S. aureus turned out to be 3.1 mg/L (≈ 11 µM).

As to `CC(C)(C)CC1CC(c2ccc(O)c(Cl)c2)(c2ccc(O)c(Cl)c2)C1` [Example 24, 1,1-Di-(3-chloro-4-hydroxyphenyl)-3-(2,2-dimethylpropyl)cyclobutane], the melting point (commonly the temperature, or range, at which the solid turns liquid) was 131 to 134 °C. For the same compound, the MIC with S. aureus turned out to be 1.6 mg/L (≈ 4.22 µM).

Take `CCCC1CC(c2ccc(O)cc2)(c2ccc(O)c(Cl)c2)C1` (stereo not drawn) [Example 4, 1-(4-Hydroxyphenyl)-1-(4-hydroxy-3-chloro-phenyl)-3-n-propyl-cyclobutane]: the MIC in the data set with H. influenzae was found to be 6 mg/L (≈ 18.9 µM); with M. smegimatis, 2 mg/L (≈ 6.31 µM); in the data set on M. catarrhalis it was 1 mg/L (≈ 3.16 µM); in the data set on S. epidermidis, 2 mg/L (≈ 6.31 µM); in the data set with S. pneumoniae, 3 mg/L (≈ 9.47 µM); with S. aureus it was 2 mg/L (≈ 6.31 µM). Besides, the results for the MIC in the data set with C. diphtheriae, in the data set on E. faecalis and with S. pyogenes were 2 mg/L (≈ 6.31 µM), 3 mg/L (≈ 9.47 µM) and 13 mg/L (≈ 41 µM), respectively.

The compound `Cc1cc(C2(c3cc(C)c(O)c(Cl)c3)C[C@@H](CC(C)(C)C)[C@@H]2C)ccc1O` (relative stereo) [Example 28, Trans-1-(4-hydroxy-3-methylphenyl)-1-(5-chloro-4-hydroxy-3-methylphenyl)-3-(2,2-dimethylpropyl)-2-methylcyclobutane] registered a melting point of 138 to 140 °C. The MIC in the data set with S. aureus was 6.2 mg/L (≈ 16 µM).

Regarding `CCCCCC1CC(c2ccc(O)c(CC)c2)(c2ccc(O)c(CC)c2)C1` [Example 31, 1,1-Di(3-ethyl-4-hydroxyphenyl)-3-n-pentylcyclobutane], the melting point lay within 109 to 111 °C. In the data set with S. aureus, the MIC amounted to 1.6 mg/L (≈ 4.37 µM).

With `CCCC1CC(c2ccc(O)cc2)(c2ccc(O)cc2)C1` [Example 3, 1,1-Bis(4-hydroxyphenyl)-3-n-propyl-cyclobutane], the MIC is 13 mg/L (≈ 46 µM) in the data set on H. influenzae; 6 mg/L (≈ 21.2 µM) in the data set on M. smegimatis; 3 mg/L (≈ 10.6 µM) in the data set with M. catarrhalis; 6 mg/L (≈ 21.2 µM) in the data set with S. epidermidis; 6 mg/L (≈ 21.2 µM) in the data set on S. pneumoniae; 8 mg/L (≈ 28.3 µM) with S. aureus. The values for the MIC with C. diphtheriae, in the data set with E. faecalis and in the data set on S. pyogenes were 6 mg/L (≈ 21.2 µM), 13 mg/L (≈ 46 µM) and 13 mg/L (≈ 46 µM), respectively.

Consider `Cc1cc(C2(c3cc(C)c(O)c(Cl)c3)C[C@@H](CC(C)(C)C)[C@@H]2C)cc(Cl)c1O` (relative stereo) [Example 27, Trans-1,1-di(5-chloro-4-hydroxy-3-methylphenyl)-3-(2,2-dimethylpropyl)-2-methylcyclobutane], for which the MIC in the data set with S. aureus came to 0.8 mg/L (≈ 1.9 µM).

The compound `CC(C)(C)C1CCC1(c1ccc(O)c(Cl)c1)c1ccc(O)c(Cl)c1` (stereo not drawn) [Example 25, 1,1-Di-(3-chloro-4-hydroxyphenyl)-2-(1,1-dimethylethyl)cyclobutane] had a melting point of 133 to 135 °C. Also, the MIC in the data set with S. aureus was determined as 0.8 mg/L (≈ 2.19 µM).

On to `CC(C)(C)C1CC(c2ccc(O)cc2)(c2ccc(O)cc2)C1` [Example 17, 1,1-Di-(4-hydroxyphenyl)-3-(1,1-dimethylethyl)cyclobutane], for which the MIC in the data set with S. aureus was found to be 6.2 mg/L (≈ 20.9 µM).

As to `CCCCCC1c2ccc(O)cc2-c2cc(O)ccc21` [Example 34, 9-Pentyl-9H-fluorene-3,6-diol], the MIC in the data set on S. aureus is 3.1 mg/L (≈ 11.6 µM).

For `CCCCC1CC(c2ccc(O)c(CC)c2)(c2ccc(O)c(CC)c2)C1` [Example 29, 1,1-Di(3-ethyl-4-hydroxyphenyl)-3-n-butylcyclobutane], the melting point lay in the range of 135 to 138 °C. The MIC with S. aureus came to 0.8 mg/L (≈ 2.27 µM).

On to `CCCCC1CC1(c1ccc(O)c(C)c1)c1ccc(O)c(C)c1` (stereo not drawn) [Example 10, 1,1-Bis(4-hydroxy-3-methylphenyl)-2-n-butylcyclopropane], for which the MIC in the data set with S. aureus turned out to be 3 mg/L (≈ 9.66 µM).

Consider `CCCCC1CC(c2cc(C)c(O)c(C)c2)(c2cc(C)c(O)c(C)c2)C1` [Example 30, 1,1-Di(3,5-dimethyl-4-hydroxyphenyl)-3-n-butylcyclobutane], for which the melting point was in the range of 138 to 141 °C. In addition, in the data set with S. aureus, the MIC is 0.8 mg/L (≈ 2.27 µM).

Turning to `C[C@H]1[C@H](CC(C)(C)C)CC1(c1ccc(O)cc1)c1ccc(O)cc1` (relative stereo) [Example 13, Trans-1,1-di(4-hydroxyphenyl)-3-(2,2-dimethylpropyl)-2-methylcyclobutane], the MIC in the data set with S. aureus was found to be 3.1 mg/L (≈ 9.55 µM).

In the case of “Trans-1,1-di-(4-hydroxy-3-methylphenyl)-3-(2,2-dimethylpropyl)-2-methylcyclobutane [Example 15]”, in the data set with S. aureus (S. aureus), the “Antibacterial Activity against S. aureus MIC” value is 0.4 mg/L.

In the case of `CCCCCC1CC1(c1ccc(O)c(Cl)c1)c1cc(Cl)c(O)c(Cl)c1` (stereo not drawn) [Example 23, 1-(3-Chloro-4-hydroxyphenyl)-1-(4-hydroxy-3,5-dichlorophenyl)-2-pentylcyclopropane], in the data set on S. aureus, the MIC is 1.6 mg/L (≈ 4 µM).

As to `CCCCC1CC(c2ccc(O)cc2)(c2ccc(O)cc2)C1` [Example 6, 1,1-Bis(4-hydroxyphenyl)-3-n-butyl-cyclobutane], the MIC was found to be 13 mg/L (≈ 43.9 µM) in the data set on H. influenzae; 3 mg/L (≈ 10.1 µM) in the data set on M. smegimatis; 3 mg/L (≈ 10.1 µM) in the data set with M. catarrhalis; 3 mg/L (≈ 10.1 µM) with S. epidermidis; 6 mg/L (≈ 20.2 µM) in the data set on S. pneumoniae; 4 mg/L (≈ 13.5 µM) with S. aureus. Further, the results for the MIC in the data set with C. diphtheriae, with E. faecalis and in the data set with S. pyogenes were 3 mg/L (≈ 10.1 µM), 3 mg/L (≈ 10.1 µM) and 13 mg/L (≈ 43.9 µM), respectively.

With `C[C@H]1[C@@H](CC(C)(C)C)CC1(c1ccc(O)cc1)c1ccc(O)cc1` (relative stereo) [Example 14, Cis-1,1-di(4-hydroxyphenyl)-3-(2,2-dimethylpropyl)-2-methylcyclobutane], the melting point is 79 to 81 °C. In addition, the MIC in the data set with S. aureus came to 0.8 mg/L (≈ 2.47 µM).

`CCCCC1CC1(c1ccc(O)c(Cl)c1)c1ccc(O)c(Cl)c1` (stereo not drawn) [Example 20, 1,1-Di(3-chloro-4-hydroxyphenyl)-2-n-butylcyclopropane]: the MIC in the data set with S. aureus was 1.6 mg/L (≈ 4.55 µM).

Take `C=CCc1cc(C2(c3ccc(O)c(CC=C)c3)CC(CCCC)C2)ccc1O` [Example 33, 1,1-Di(3-allyl-4-hydroxyphenyl)-3-n-butylcyclobutane]: the MIC in the data set with S. aureus stood at 1.6 mg/L (≈ 4.25 µM).

Consider `CCCCCC1CC1(c1ccc(O)c(Cl)c1)c1ccc(O)c(Cl)c1` (stereo not drawn) [Example 22, 1,1-Di(3-chloro-4-hydroxyphenyl)-2-pentylcyclopropane], for which the MIC in the data set with S. aureus amounted to 1.6 mg/L (≈ 4.38 µM).

For `Cc1cc(C2(c3ccc(O)c(C)c3)CC(CC(C)(C)C)C2)ccc1O` [Example 12, 1,1-Di(4-hydroxy-3-methylphenyl)-3-(2,2-dimethylpropyl)cyclobutane], the melting point was in the range of 175 to 176 °C. In the data set on S. aureus, the MIC is 1.6 mg/L (≈ 4.73 µM).

On to `CCCCC1CC(c2ccc(O)cc2)(c2ccc(O)c(Cl)c2)C1` (stereo not drawn) [Example 7, 1-(4-Hydroxyphenyl)-1-(4-hydroxy-3-chlorophenyl)-3-n-butyl-cyclobutane], for which the MIC is 6 mg/L (≈ 18.1 µM) in the data set on H. influenzae; 1 mg/L (≈ 3.02 µM) in the data set on M. smegimatis; 1 mg/L (≈ 3.02 µM) in the data set with M. catarrhalis; 1 mg/L (≈ 3.02 µM) in the data set on S. epidermidis; 3 mg/L (≈ 9.07 µM) in the data set with S. pneumoniae; 1 mg/L (≈ 3.02 µM) with S. aureus. Further, the MIC was determined as 2 mg/L (≈ 6.04 µM) in the data set with C. diphtheriae, 2 mg/L (≈ 6.04 µM) with E. faecalis and 6 mg/L (≈ 18.1 µM) in the data set on S. pyogenes.

Take `CCCCC1CC1(c1ccc(O)c(Cl)c1)c1cc(Cl)c(O)c(Cl)c1` (stereo not drawn) [Example 21, 1-(3-Chloro-4-hydroxyphenyl)-1-(4-hydroxy-3,5-dichlorophenyl)-2-n-butylcyclopropane]: in the data set with S. aureus, the MIC turned out to be 3.1 mg/L (≈ 8.04 µM).

With `Cc1cc(C2(c3ccc(O)c(C)c3)CC(C(C)(C)C)C2)ccc1O` [Example 16, 1,1-Di-(4-hydroxy-3-methylphenyl)-3-(1,1-dimethylethyl)cyclobutane], in the data set on S. aureus, the MIC amounted to 0.8 mg/L (≈ 2.47 µM).

`CC(C)(C)CC1CC(c2ccc(O)cc2)(c2ccc(O)cc2)C1` [Example 11, 1,1-Di(4-hydroxyphenyl)-3-(2,2-dimethylpropyl)cyclobutane] returned a melting point of 182 to 184 °C. Further, the MIC in the data set on S. aureus was determined as 12.5 mg/L (≈ 40.3 µM).

With `CCCCCC1CC1(c1ccc(O)cc1)c1ccc(O)cc1` (stereo not drawn) [Example 19, 1,1-Di(4-hydroxyphenyl)-2-n-pentylcyclopropane], the MIC in the data set with S. aureus was 6.2 mg/L (≈ 20.9 µM).

In turn, `CCCCCC1CC(c2cc(C)c(O)c(C)c2)(c2cc(C)c(O)c(C)c2)C1` [Example 32, 1,1-Di(3,5-dimethyl-4-hydroxyphenyl)-3-n-pentylcyclobutane] registered a melting point of 115 to 117 °C. In the data set on S. aureus, the MIC was 1.6 mg/L (≈ 4.37 µM).

As for `C[C@H]1[C@H](CC(C)(C)C)CC1(c1ccc(O)c(Cl)c1)c1ccc(O)c(Cl)c1` (relative stereo) [Example 26, Trans-1,1-Di(3-chloro-4-hydroxyphenyl)-3-(2,2-dimethylpropyl)-2-methylcyclobutane], the melting point fell in the range of 126 to 128 °C. Further, in the data set with S. aureus, the MIC was determined as 0.8 mg/L (≈ 2.03 µM).
